Reference: patent US11602519B1, “Method for preventing myocardial infarction using eucalyptol” (KING FAISAL UNIVERSITY, priority 2021, dated 2023)

Legend:
Type in all cases: in vivo, Wister rats
[1] = test system: HSP-60 and inflammatory markers (TNF-α, IL-6 and NFκB); assay: HSP-60 and inflammatory mediators in ISO-induced MI
Method: (§1) Animals were distributed into five groups randomly (n=6). The animals in normal and eucalyptol control groups were administered either saline or eucalyptol for 3 weeks and then saline (s.c) on the last two days of the experiment (20th and 21st days). The animals in the myocardial infarction (MI) control group were given saline orally for 3 weeks, then challenged with Isoproterenol (ISO) (85 mg/kg, s.c.) as stated before on the 20th and 21st days to induce MI. The animals in the eucalyptol pretreatment groups were pretreated with eucalyptol (either 100 or 200 mg/kg) orally for 3 weeks then confronted with ISO (85 mg/kg s.c.) on the last two days of the experiment. All experimental animals were killed 24 hrs after the second dose of ISO. The extracted heart tissues were homogenated in 10% phosphate buffer to be used for the measurement of numerous biochemical parameters, including cardiac enzymes, apoptotic markers, inflammatory mediators' markers, and total protein. ELISA kits were consumed to measure cardiac enzymes: CPK, CK-MB, cTnT, and cTnI; apoptotic markers: Caspase 3 and Caspase 9 and inflammatory mediators: TNF-α, IL-1β, and NFκB. All ELISA Kits were used according to the manufacturer's protocols and using a microplate reader SpectraMax i.3× (Molecular Devices, USA).

ISO induced MI animals [2] = assay: Heart rate and ECG recording in ISO-induced myocardial infarction; conditions: for Heart Rate / P Wave / P-R interval / QRS complex / QT interval / R-R interval / ST segment: mean ± SD, n=6
Method: Animals were distributed into five groups randomly (n=6). The animals in normal and eucalyptol control groups were administered either saline or eucalyptol for 3 weeks and then saline (s.c) on the last two days of the experiment (20th and 21st days). The animals in the myocardial infarction (MI) control group were given saline orally for 3 weeks, then challenged with Isoproterenol (ISO) (85 mg/kg, s.c.) as stated before on the 20th and 21st days to induce MI. The animals in the eucalyptol pretreatment groups were pretreated with eucalyptol (either 100 or 200 mg/kg) orally for 3 weeks then confronted with ISO (85 mg/kg s.c.) on the last two days of the experiment. All experimental animals were killed 24 hrs after the second dose of ISO. At the end of the experiments, urethane-anesthetized rats (1.5 g/kg) were prone positioned to obtain uninterrupted ECG recordings using noninvasive computerized ECG apparatus from. Kent Scientific (USA). Heart rate and ECG components including ST segment, wave. QT, P-R and R-R intervals, and QRS complex were electronically measured.

ISO induced MI animals [3] = assay: Cardiac enzymes by ELISA in ISO-induced MI
Method: as §1

ISO induced MI animals [4] = assay: Infarct size determination (TTC staining) in ISO-induced MI; conditions: pretreatment 100, 200 mg/kg, 21 days, vs ISO induced MI group
Method: Animals were distributed into five groups randomly (n=6). The animals in normal and eucalyptol control groups were administered either saline or eucalyptol for 3 weeks and then saline (s.c) on the last two days of the experiment (20th and 21st days). The animals in the myocardial infarction (MI) control group were given saline orally for 3 weeks, then challenged with Isoproterenol (ISO) (85 mg/kg, s.c.) as stated before on the 20th and 21st days to induce MI. The animals in the eucalyptol pretreatment groups were pretreated with eucalyptol (either 100 or 200 mg/kg) orally for 3 weeks then confronted with ISO (85 mg/kg s.c.) on the last two days of the experiment. All experimental animals were killed 24 hrs after the second dose of ISO. Subsequent to ECG determination, blood samples were collected and the hearts were directly removed and balanced using an animal weighing scale prior to storage. The obtained blood samples were centrifuged and the serum from different experimental groups was frozen in −80° C. for further biochemical examinations. Frozen hearts were cut into 4-5 transverse incubated in 10% TTC (dissolved phosphate buffer, pH 7.4) for 25 min. at room temperature, fixed using 10% formaldehyde, and finally quantified using Image J® program (National Institutes of Health, University of Wisconsin).

[5] = test system: TLR pathway (TLR 2, TLR 4, MYD 88, and TRIF); assay: TLR pathway mRNA expression by real-time PCR in ISO-induced MI; conditions: pretreatment 100, 200 mg/kg, 21 days, vs ISO induced MI control group
Method: Animals were distributed into five groups randomly (n=6). The animals in normal and eucalyptol control groups were administered either saline or eucalyptol for 3 weeks and then saline (s.c) on the last two days of the experiment (20th and 21st days). The animals in the myocardial infarction (MI) control group were given saline orally for 3 weeks, then challenged with Isoproterenol (ISO) (85 mg/kg, s.c.) as stated before on the 20th and 21st days to induce MI. The animals in the eucalyptol pretreatment groups were pretreated with eucalyptol (either 100 or 200 mg/kg) orally for 3 weeks then confronted with ISO (85 mg/kg s.c.) on the last two days of the experiment. All experimental animals were killed 24 hrs after the second dose of ISO. Real-time PCR was preformed according to known techniques. Primer sequences used in this study were as follows: Bcl-2-[…] NO: 1), Bcl-2-[…] ID NO:2), Bax-[…] NO: 3), Bax-[…] ID NO: 4), […] ID NO: 5), […] ID NO: 6), […] ID NO: 7), […] ID NO: 8), MyD88 -[…] ID NO: 9), […] ID NO: 11), […] ID NO: 12), β-[…] NO: 13), β-[…] ID NO: 14).

[6] = test system: TLR pathway (TLR 2, TLR 4, MYD 88, and TRIF); assay: TLR pathway protein expression by Western blot in cardiac tissue, ISO-induced MI
Method: Animals were distributed into five groups randomly (n=6). The animals in normal and eucalyptol control groups were administered either saline or eucalyptol for 3 weeks and then saline (s.c) on the last two days of the experiment (20th and 21st days). The animals in the myocardial infarction (MI) control group were given saline orally for 3 weeks, then challenged with Isoproterenol (ISO) (85 mg/kg, s.c.) as stated before on the 20th and 21st days to induce MI. The animals in the eucalyptol pretreatment groups were pretreated with eucalyptol (either 100 or 200 mg/kg) orally for 3 weeks then confronted with ISO (85 mg/kg s.c.) on the last two days of the experiment. All experimental animals were killed 24 hrs after the second dose of ISO. For detection of the Toll-Like Receptors pathway protein expressions, Western blot was performed according to known methods. Values were mentioned as mean SEM (n=6). Densitometry inquiry was accomplished via Image software for Western analysis. Statistical analysis appraisal was done via GraphPad Prism 5.

[7] = test system: Bax, Bcl2, Caspase 3 and 9; assay: Apoptotic status within the myocardium in ISO-induced MI (Bax, Bcl-2 mRNA; Caspase 3 and 9)
Method: as §1, with “USA). Real-time PCR was preformed according to known techniques. Primer sequences used in this study were as follows: Bcl-2-[…] NO: 1), Bcl-2-[…] ID NO:2), Bax-[…] NO: 3), Bax-[…] ID NO: 4), […] ID NO: 5), […] ID NO: 6), […] ID NO: 7), […] ID NO: 8), MyD88 -[…] ID NO: 9), […] ID NO: 11), […] ID NO: 12), β-[…] NO: 13), β-[…] ID NO: 14).” for “USA).”

[8] = eucalyptol control group, no ISO
[9] = Eucalyptol 100 mg/kg orally 21 days, then ISO
[10] = Eucalyptol 200 mg/kg orally 21 days, then ISO
[11] = Eucalyptol control group, no ISO
[12] = pretreatment 100, 200 mg/kg, 21 days, vs ISO induced MI group
[13] = pretreatment (100 and 200 mg/kg, 21 days) vs MI animals

SMILES: CC12CCC(CC1)C(C)(C)O2 [Eucalyptol, 1,8-cineole]
- HSP-60, IL-6 and NFκB, 200 mg/kg compared with 100 mg/kg ([1]; dose of 200 mg/kg vs 100 mg/kg): further significant reduction
- TNF-α, 200 mg/kg compared with 100 mg/kg ([1]; dose of 200 mg/kg vs 100 mg/kg): non-significant difference
- HSP-60 and inflammatory markers (TNF-α, IL-6 and NFκB) [1, 8]: no effect
- myocardial infarction elevation in HSP 60 ([1]; pretreatment 100 and 200 mg/kg): diminished
- myocardial infarction elevation in inflammatory mediators (TNF-α, IL-6 and NFκB) ([1]; pretreatment 100 and 200 mg/kg): diminished
- Heart Rate (ISO induced MI animals [2]; Eucalyptol 100 mg/kg orally 21 days, then ISO 85 mg/kg s.c.): 294 ± 21.06 ≠ beat/min
- P Wave (ISO induced MI animals [2]; [9]): 0.015 ± 0.001 ≠ sec.
- P-R interval (ISO induced MI animals [2]; [9]): 0.212 ± 0.012 ≠ sec.
- QRS complex (ISO induced MI animals [2]; [9]): 0.038 ± 0.001 ≠ sec.
- QT interval (ISO induced MI animals [2]; [9]): 0.064 ± 0.003 ≠ sec.
- R-R interval (ISO induced MI animals [2]; [9]): 0.180 ± 0.004 ≠ sec.
- ST segment (ISO induced MI animals [2]; [9]): 0.061 ± 0.009 ≠ mV
- Heart Rate (ISO induced MI animals [2]; Eucalyptol 200 mg/kg orally 21 days, then ISO 85 mg/kg s.c.): 337.16 ± 14.98 ≠ beat/min
- P Wave (ISO induced MI animals [2]; [10]): 0.015 ± 0.001 ≠ sec.
- P-R interval (ISO induced MI animals [2]; [10]): 0.222 ± 0.05 ≠ sec.
- QRS complex (ISO induced MI animals [2]; [10]): 0.035 ± 0.001 ≠ sec.
- QT interval (ISO induced MI animals [2]; [10]): 0.061 ± 0.003 ≠ sec.
- R-R interval (ISO induced MI animals [2]; [10]): 0.183 ± 0.056 ≠ sec.
- ST segment (ISO induced MI animals [2]; [10]): 0.046 ± 0.009 ≠ mV
- P Wave (ISO induced MI animals [2]; [11]): 0.019 ± 0.002 s
- P-R interval (ISO induced MI animals [2]; [11]): 0.230 ± 0.012 s
- QRS complex (ISO induced MI animals [2]; [11]): 0.042 ± 0.001 s
- QT interval (ISO induced MI animals [2]; [11]): 0.047 ± 0.002 s
- R-R interval (ISO induced MI animals [2]; [11]): 0.222 ± 0.012 s
- ST segment (ISO induced MI animals [2]; [11]): 0.025 ± 0.002 mV
- Heart Rate (ISO induced MI animals [2]; Eucalyptol control group: eucalyptol for 3 weeks, saline s.c. instead of ISO): 398.16 ± 43.67 beat/min
- heart rate and electrocardiographic (ECG) patterns (ISO induced MI animals [2]; [8]): normal
- HR as well as ECG alterations (ISO induced MI animals [2]; [12]): reversed
- cardiac enzymes (CPK, CK-MB, cTnT, cTnI) (ISO induced MI animals [3]; [8]): normal
- Cardiac Tropinine I (cTnI) (ISO induced MI animals [3]; [12]): significantly diminished
- Cardiac Tropinine T (cTnT) (ISO induced MI animals [3]; [12]): significantly diminished
- Creatine Kinase Myocardial Bound (CK-MB) (ISO induced MI animals [3]; [12]): significantly diminished
- Creatine Phosphokinase (CPK) (ISO induced MI animals [3]; [12]): significantly diminished
- infarcted area magnitude (infarct size) (ISO induced MI animals [4]): significant infarcted restricting action
- MYD 88 relative mRNA expression level [5]: considerably (p<0.05) declined
- TLR 2 relative mRNA expression level [5]: considerably (p<0.05) declined
- TLR 4 relative mRNA expression level [5]: considerably (p<0.05) declined
- TRIF relative mRNA expression level [5]: considerably (p<0.05) declined
- TLR pathway protein content [6, 8]: no effect
- post-myocardial infarction intensification of TLR pathway protein expression (TLR 2, TLR 4, MYD 88, TRIF) ([6]; pretreatment 100 and 200 mg/kg, cardiac tissue, Western blot): lessened
- Bax, Bcl2, Caspase 3 and 9 [7, 8]: no effect
- Bax relative mRNA expression [7, 13]: deteriorated
- Bcl-2 mRNA expression [7, 13]: intensified
- Caspase 3 and 9 activities [7, 13]: deteriorated
